Test results: PubChem BioAssay (NCI)
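Interpolation was linear, between the two tested concentrations surrounding the appropriate level; five concentrations were tested over 48 hours in 96-well plates. TGI denotes the concentration required for complete inhibition of growth.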

Tests used:
Test in all cases: NCI tumour cell line growth inhibition, 48 h
786-0 renal = tested on: 786-0 renal
A498 renal = tested on: A498 renal
A549 NSCLC = tested on: A549 NSCLC
ACHN renal = tested on: ACHN renal
BT-549 breast = tested on: BT-549 breast
CAKI-1 renal = tested on: CAKI-1 renal
COLO 205 colon = tested on: COLO 205 colon
DU-145 prostate = tested on: DU-145 prostate
EKVX NSCLC = tested on: EKVX NSCLC
HCT-116 colon = tested on: HCT-116 colon
HCT-15 colon = tested on: HCT-15 colon
HL-60(TB) leukemia = tested on: HL-60(TB) leukemia
HOP-62 NSCLC = tested on: HOP-62 NSCLC
HOP-92 NSCLC = tested on: HOP-92 NSCLC
HT29 colon = tested on: HT29 colon
IGROV1 ovarian = tested on: IGROV1 ovarian
K-562 leukemia = tested on: K-562 leukemia
KM12 colon = tested on: KM12 colon
LOX IMVI melanoma = tested on: LOX IMVI melanoma
M14 melanoma = tested on: M14 melanoma
MCF7 breast = tested on: MCF7 breast
MDA-MB-231 breast = tested on: MDA-MB-231 breast
MDA-MB-435 = tested on: MDA-MB-435
MDA-N = tested on: MDA-N
MOLT-4 leukemia = tested on: MOLT-4 leukemia
NCI-H226 lung = tested on: NCI-H226 lung
NCI-H23 lung = tested on: NCI-H23 lung
NCI-H460 lung = tested on: NCI-H460 lung
NCI/ADR-RES ovarian = tested on: NCI/ADR-RES ovarian
OVCAR-3 ovarian = tested on: OVCAR-3 ovarian
OVCAR-4 ovarian = tested on: OVCAR-4 ovarian
OVCAR-5 ovarian = tested on: OVCAR-5 ovarian
OVCAR-8 ovarian = tested on: OVCAR-8 ovarian
PC-3 prostate = tested on: PC-3 prostate
RPMI-8226 leukemia = tested on: RPMI-8226 leukemia
RXF 393 renal = tested on: RXF 393 renal
SF-295 CNS = tested on: SF-295 CNS
SF-539 CNS = tested on: SF-539 CNS
SK-MEL-2 melanoma = tested on: SK-MEL-2 melanoma
SK-MEL-28 melanoma = tested on: SK-MEL-28 melanoma
SK-MEL-5 melanoma = tested on: SK-MEL-5 melanoma
SK-OV-3 ovarian = tested on: SK-OV-3 ovarian
SN12C renal = tested on: SN12C renal
SNB-19 CNS = tested on: SNB-19 CNS
SR leukemia = tested on: SR leukemia
SW-620 colon = tested on: SW-620 colon
T-47D breast = tested on: T-47D breast
TK-10 renal = tested on: TK-10 renal
U251 CNS = tested on: U251 CNS
UACC-257 melanoma = tested on: UACC-257 melanoma
UACC-62 melanoma = tested on: UACC-62 melanoma
UO-31 renal = tested on: UO-31 renal

Measured: TGI

O=C(O)c1ccc([N+](=O)[O-])c(P(=O)(O)O)c1
> 100 µM: all assays above
